Test results published in PMC8592419 (PLoS ONE, 2021).
In brackets after ≈: the same amount, converted by molar mass. Where a SMILES comes first, the peptide text is derived from it.

What was measured:
[1] = system: M. abscessus clinical isolate MAB13; format: cell-based, M. abscessus subsp. massiliense; settings: 3 days at 37°C
Procedure: (§1) Briefly, serial dilutions of the AMPs were prepared with potassium phosphate buffer (PPB) from the concentration range of 3.125 to 400 μg/ml and then 50 μl of each dilution were added to each 96-well plate. Colonies of the isolate were suspended and then further diluted in Mueller-Hinton broth to obtain a final concentration of 1×10^3 CFU/ml (optimized according to the available AMP stock concentration). Fifty microliters of this inoculum were added to each well of the plates. The plates were incubated for 3 days at 37°C. Plain media and bacterial suspensions without AMPs were used as negative and positive controls. The MIC values were read and recorded. All assays were performed in duplicate and two independent experiments.
(§2) For the in vitro antimicrobial susceptibility, the same protocol as described above was used. The culture plates were further incubated up to 3 days at 37°C. The MIC values were read and recorded.

[2] = system: M. abscessus clinical isolate MAB09; test: microbe, parasite or virus in culture; format: cell-based, M. abscessus subsp. abscessus; settings: MAB09
Procedure: (§3) Mab suspensions at a 5×10^5 CFU/ml final concentration were added to each well and incubated for 3 days and 14 days at 37°C. MIC values were defined when the percent killing of CFUs of more than 90% were compared to the media controls without AMPs or drugs. The fraction inhibitory concentration index (FICI) was calculated using the following formula: FICI = [C(MIC^A)/MIC^A] + [C(MIC^B)/MIC^B]. […] For interpretation, FICI ≤ 0.5 was interpreted as synergism, FICI >0.5–1.0 was interpreted as additive, FICI >1.0–4.0 was interpreted as indifferent and FICI >4.0 was interpreted as antagonism.

[3] = system: M. abscessus clinical isolate MAB02; test: microbe, parasite or virus in culture; format: cell-based, M. abscessus subsp. abscessus; settings: MAB02
Procedure: as §3

[4] = system: M. abscessus clinical isolate MAB05; test: microbe, parasite or virus in culture; format: cell-based, M. abscessus subsp. abscessus; settings: MAB05
Procedure: as §3

[5] = system: M. abscessus clinical isolate MAB03; test: microbe, parasite or virus in culture; format: cell-based, M. abscessus subsp. abscessus; settings: MAB03
Procedure: as §3

[6] = system: M. abscessus clinical isolate MAB07; test: microbe, parasite or virus in culture; format: cell-based, M. abscessus subsp. abscessus; settings: MAB07
Procedure: as §3

[7] = system: M. abscessus clinical isolate MAB10; test: microbe, parasite or virus in culture; format: cell-based, M. abscessus subsp. abscessus; settings: MAB10
Procedure: as §3

[8] = system: M. abscessus clinical isolate MAB01; test: microbe, parasite or virus in culture; format: cell-based, M. abscessus subsp. abscessus; settings: MAB01; AMP + CLA; mean ± S.D., two independent experiments
Procedure: as §3

[9] = system: M. abscessus clinical isolate MAB11; test: microbe, parasite or virus in culture; format: cell-based, M. abscessus subsp. abscessus; settings: MAB11
Procedure: as §3

[10] = system: M. abscessus clinical isolate MAB14; test: microbe, parasite or virus in culture; format: cell-based, M. abscessus subsp. massiliense; settings: MAB14
Procedure: as §3

[11] = system: M. abscessus clinical isolate MAB12; test: microbe, parasite or virus in culture; format: cell-based, M. abscessus subsp. massiliense; settings: MAB12
Procedure: as §3

[12] = system: M. abscessus clinical isolate MAB15; test: In vitro antimicrobial susceptibility of potential AMPs, broth microdilution, 3 days; format: cell-based, M. abscessus subsp. massiliense; settings: 3 days at 37°C
Procedure: as §1, §2

[13] = system: M. abscessus clinical isolate MAB16; test: as above; format: cell-based, M. abscessus subsp. massiliense; settings: 3 days at 37°C
Procedure: as §1, §2

[14] = system: M. abscessus clinical isolate MAB06; format: cell-based, M. abscessus subsp. abscessus; settings: 3 days at 37°C
Procedure: as §1, §2

[15] = system: M. abscessus clinical isolate MAB08; test: In vitro antimicrobial susceptibility of potential AMPs, broth microdilution, 3 days; format: cell-based, M. abscessus subsp. abscessus; settings: 3 days at 37°C
Procedure: as §1, §2

[16] = system: M. abscessus clinical isolate MAB04; test: as above; format: cell-based, M. abscessus subsp. abscessus; settings: 3 days at 37°C
Procedure: as §1, §2

[17] = system: sixteen clinical Mab isolates; test: 24-hour bactericidal activity assay, summary over isolates; format: cell-based, Mycobacterium abscessus; settings: majority of the tested strains (10/16 isolates); equivalent of <50 μg/ml
Procedure: as §1
Potential AMPs from the screening assays were subjected to determine the 24-hour bactericidal activity assays (corresponding to the common time of administration) with sixteen clinical Mab isolates using the protocol as described above. To observe the early antimicrobial activities, the plates were incubated for 24 h at 37°C. The samples from each well were further diluted in 0.05% Tween 80 and inoculated on Mueller-Hinton agar. After incubation for 3 days at 37°C, the colony-forming units (CFUs) were counted and calculated for the percentage of killing using the following formula: % killing = 1 - (CFU sample/ CFU control) ×100.

[18] = system: clinical isolates of M. abscessus; test: In vitro susceptibility of potential AMPs, 3 days, summary over isolates; format: cell-based, Mycobacterium abscessus; settings: isolates MAB01 and MAB03
Procedure: as §1, §2

[19] = AMP + CLA, mean ± S.D., two independent experiments

CC[C@H](C)[C@H](NC(=O)[C@H](CCCCN)NC(=O)[C@H](CCCNC(=N)N)NC(=O)CNC(=O)[C@H](CC(C)C)NC(=O)[C@H](CO)NC(=O)[C@H](CCCNC(=N)N)NC(=O)[C@H](CC(C)C)NC(=O)CNC(=O)CN)C(=O)N[C@@H](CC(C)C)C(=O)N[C@@H](CCCNC(=N)N)C(=O)N[C@@H](C)C(=O)N[C@@H](Cc1c[nH]c2ccccc12)C(=O)N[C@@H](CCCCN)C(=O)N[C@@H](CCCCN)C(=O)N[C@@H](Cc1ccc(O)cc1)C(=O)O [S61] (H-GGLRSLGRKILRAWKKY-OH)
Antimicrobial peptides against M. abscessus isolates, MIC value [1]: >400 µg/mL | FICI [2, 19]: 1.01±0.00 | MIC, AMP alone ([2]; AMP alone): >400 µg/mL | FICI [3, 19]: 1.02±0.00 | MIC, AMP alone ([3]; AMP alone): >400 µg/mL | FICI [4, 19]: 1.01±0.00 | MIC, AMP alone ([4]; AMP alone): >400 µg/mL | FICI [5, 19]: 0.28±0.00 | MIC, AMP alone ([5]; AMP alone): 6.25 µg/mL | FICI [6, 19]: 0.03±0.00 | MIC, AMP alone ([6]; AMP alone): >400 µg/mL | FICI [7, 19]: 0.05±0.00 | MIC, AMP alone ([7]; AMP alone): >400 µg/mL | FICI [8]: 0.41±0.17 | FICI [9, 19]: 0.67±0.08 | MIC, AMP alone ([9]; AMP alone): >400 µg/mL | FICI [10, 19]: 0.10±0.04 | MIC, AMP alone ([10]; AMP alone): >400 µg/mL | FICI [11, 19]: 1.01±0.00 | MIC, AMP alone ([11]; AMP alone): >400 µg/mL | Antimicrobial peptides against M. abscessus isolates, MIC value [12]: >400 µg/mL | Antimicrobial peptides against M. abscessus isolates, MIC value [13]: >400 µg/mL | Antimicrobial peptides against M. abscessus isolates, MIC value [14]: >400 µg/mL | Antimicrobial peptides against M. abscessus isolates, MIC value [15]: >400 µg/mL | Antimicrobial peptides against M. abscessus isolates, MIC value [16]: >400 µg/mL | MIC with ~99% killed within 24 h, in μM [17]: less than 24.97 μM | MIC values after 3 days [18]: 3.13 µM (≈ 6.27 µg/mL)
